Measurements published in ChEMBL document CHEMBL1201862, “PubChem BioAssay data set” (2004).
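Assay format: 96-well plates, 48-hour exposure. GI50 = concentration required for 50% inhibition of growth.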 Active and inactive are the calls of the source. Rule as the data show it: active = GI50 up to about 1.1 µM and inactive = higher.

Assays:
Experiment in all cases: NCI tumour cell line growth inhibition, 48 h
SNB-75 = test system: SNB-75
A549 = test system: A549
MOLT-4 = test system: MOLT-4
HOP-62 = test system: HOP-62
SK-MEL-2 = test system: SK-MEL-2
SR = test system: SR
RXF 393 = test system: RXF 393
786-0 = test system: 786-0
HOP-18 = test system: HOP-18
EKVX = test system: EKVX
SW-620 = test system: SW-620
SN12C = test system: SN12C
SK-OV-3 = test system: SK-OV-3
TK-10 = test system: TK-10
SK-MEL-28 = test system: SK-MEL-28
SF-539 = test system: SF-539
HOP-92 = test system: HOP-92
BT-549 = test system: BT-549
NCI/ADR-RES = test system: NCI/ADR-RES
HCC 2998 = test system: HCC 2998

Measured: GI50

COc1cccc(NC(=O)CSc2nnc(-c3ccc(/N=C\c4ccc(Cl)cc4)cc3)o2)c1
inactive: SNB-75 23.8 µM | A549 27.2 µM | MOLT-4 23.4 µM | HOP-62 31.6 µM | SK-MEL-2 19 µM | SR 28.2 µM | RXF 393 18.3 µM | 786-0 24.5 µM | HOP-18 40 µM | EKVX 36.7 µM | SW-620 20.4 µM | SN12C 21.2 µM | SK-OV-3 33.3 µM | TK-10 30.6 µM | SK-MEL-28 18.3 µM

COc1cc(/C=C2\CCC/C(=C\c3ccc(O)c(OC)c3)C2=O)ccc1O [CYCLOVALONE]
inactive: A549 2.73 µM | MOLT-4 2.83 µM | SF-539 2.04 µM | HOP-62 2.84 µM | SK-MEL-2 3.56 µM | SR 1.28 µM | RXF 393 2.24 µM | 786-0 2.07 µM | HOP-92 5.2 µM | HOP-18 2.74 µM | EKVX 6.84 µM | SW-620 2.7 µM | SN12C 2.38 µM | SK-OV-3 3.73 µM | BT-549 3.59 µM | NCI/ADR-RES 2.91 µM | TK-10 5 µM | SK-MEL-28 3.41 µM | HCC 2998 2.77 µM

C=CC[C@@]1(C#N)C[C@H](C[C@]2(C#N)C[C@H](CCl)OC(C)(C)O2)OC(C)(C)O1
inactive: SNB-75 64.4 µM | A549 > 100 µM | MOLT-4 72.8 µM | SF-539 > 100 µM | HOP-62 > 100 µM | SK-MEL-2 > 100 µM | SR 60.7 µM | RXF 393 > 100 µM | 786-0 > 100 µM | HOP-92 51.9 µM | HOP-18 > 100 µM | EKVX > 100 µM | SW-620 > 100 µM | SN12C > 100 µM | SK-OV-3 > 100 µM | TK-10 > 100 µM | SK-MEL-28 > 100 µM | HCC 2998 > 100 µM

O=C(OCCOCBr)c1ccccc1
inactive: SNB-75 > 100 µM | A549 > 100 µM | MOLT-4 > 100 µM | SF-539 > 100 µM | HOP-62 > 100 µM | SK-MEL-2 > 100 µM | SR > 100 µM | 786-0 > 100 µM | HOP-92 > 100 µM | HOP-18 > 100 µM | EKVX > 100 µM | SW-620 > 100 µM | SN12C > 100 µM | SK-OV-3 > 100 µM | TK-10 > 100 µM | SK-MEL-28 > 100 µM | HCC 2998 > 100 µM

CCCC/C=C/C1Cc2ccccc2CN1S(=O)(=O)c1ccc(C)cc1 (centres undefined)
inactive: SNB-75 13.3 µM | A549 5.33 µM | MOLT-4 3.97 µM | SF-539 15.7 µM | HOP-62 31.5 µM | SK-MEL-2 14.3 µM | SR 2.77 µM | RXF 393 10.8 µM | 786-0 12.3 µM | HOP-92 2.15 µM | HOP-18 83 µM | EKVX 13.7 µM | SW-620 11.2 µM | SN12C 10.6 µM | SK-OV-3 26.6 µM | TK-10 20.9 µM | SK-MEL-28 10.5 µM | HCC 2998 12.1 µM

NCC1(N2CCOCC2)C2CCCC21CO (centres undefined)
inactive: SNB-75 > 100 µM | A549 > 100 µM | MOLT-4 > 100 µM | SF-539 > 100 µM | HOP-62 > 100 µM | SK-MEL-2 > 100 µM | SR > 100 µM | RXF 393 > 100 µM | 786-0 > 100 µM | HOP-92 > 100 µM | HOP-18 > 100 µM | SW-620 > 100 µM | SN12C > 100 µM | SK-OV-3 > 100 µM | SK-MEL-28 > 100 µM | HCC 2998 > 100 µM

O=C(CCC(=O)Nc1ccc(Cl)c(Cl)c1)Cc1nc2ccccc2o1
inactive: SNB-75 > 100 µM | A549 > 100 µM | MOLT-4 > 100 µM | SF-539 > 100 µM | HOP-62 > 100 µM | SK-MEL-2 > 100 µM | SR > 100 µM | RXF 393 > 100 µM | 786-0 > 100 µM | HOP-92 > 100 µM | HOP-18 > 100 µM | EKVX 67.3 µM | SW-620 > 100 µM | SN12C > 100 µM | SK-OV-3 > 100 µM | TK-10 > 100 µM | SK-MEL-28 > 100 µM | HCC 2998 > 100 µM

CC(C)N(C(=O)C12C3C4C5C3C1(C(=O)N(C(C)C)C(C)C)C5(C#N)C42)C(C)C (centres undefined)
inactive: SNB-75 > 100 µM | A549 86.3 µM | MOLT-4 > 100 µM | SF-539 > 100 µM | HOP-62 > 100 µM | SK-MEL-2 > 100 µM | SR 17.9 µM | 786-0 > 100 µM | HOP-92 > 100 µM | HOP-18 > 100 µM | EKVX > 100 µM | SW-620 17.9 µM | SN12C > 100 µM | SK-OV-3 > 100 µM | TK-10 > 100 µM | SK-MEL-28 > 100 µM | HCC 2998 > 100 µM

Cc1ccc2nc(NC(=O)/C(=N\NC(=S)NN)C3C(=O)NC(=S)NC3=O)sc2c1
inactive: SNB-75 > 100 µM | A549 > 100 µM | MOLT-4 > 100 µM | SF-539 > 100 µM | HOP-62 > 100 µM | SK-MEL-2 > 100 µM | SR > 100 µM | RXF 393 > 100 µM | 786-0 > 100 µM | HOP-92 > 100 µM | HOP-18 80 µM | EKVX > 100 µM | SW-620 > 100 µM | SN12C > 100 µM | SK-OV-3 > 100 µM | TK-10 > 100 µM | SK-MEL-28 > 100 µM | HCC 2998 > 100 µM

COC(=O)C(=O)C(C(=O)C(=O)Nc1ccccc1C(N)=O)c1nc2ccc(C(=O)c3ccccc3)cc2nc1O (centres undefined)
inactive: A549 > 100 µM | MOLT-4 92.5 µM | SF-539 > 100 µM | SK-MEL-2 > 100 µM | SR 68.1 µM | RXF 393 80.2 µM | 786-0 > 100 µM | HOP-18 37.1 µM | EKVX > 100 µM | SW-620 > 100 µM | SN12C > 100 µM | TK-10 > 100 µM | SK-MEL-28 > 100 µM | HCC 2998 > 100 µM

C=C1CCC2C(C)(CO)C(O)CCC2(C)C1CC(O)C1=CCOC1=O (centres undefined)
inactive: SNB-75 46.9 µM | A549 55.2 µM | MOLT-4 > 100 µM | SF-539 24.3 µM | HOP-62 > 100 µM | SK-MEL-2 53.5 µM | SR 18 µM | 786-0 23.1 µM | HOP-92 > 100 µM | HOP-18 54.7 µM | EKVX 96.2 µM | SW-620 19.8 µM | SN12C 31.4 µM | SK-OV-3 51.5 µM | TK-10 > 100 µM | SK-MEL-28 > 100 µM | HCC 2998 17.7 µM

[O-][N+]1=C(c2ccccc2)COc2ccccc21
inactive: SNB-75 > 100 µM | A549 > 100 µM | MOLT-4 > 100 µM | SF-539 > 100 µM | HOP-62 > 100 µM | SK-MEL-2 > 100 µM | SR 47.5 µM | RXF 393 > 100 µM | 786-0 > 100 µM | HOP-92 > 100 µM | HOP-18 > 100 µM | SW-620 > 100 µM | SN12C > 100 µM | SK-OV-3 > 100 µM | TK-10 > 100 µM | SK-MEL-28 > 100 µM | HCC 2998 > 100 µM
